Data as given in publication doi:10.1101/2025.09.12.675753, “In search of nonlipogenic ABCA1 inducers (NLAI): precision coregulator TR-FRET identifies diverse signatures for LXR ligands” (bioRxiv, 2025).
Entries after “also recorded” stand apart in the source; their conditions may differ. Where two headings read alike, the source gives them in different places. Blank lines part the entries; values can stand above or below the molecule they belong to.

How the values were obtained:
LXRα [1] = target: T1, LXRα (Homo sapiens, UniProt Q13133)
T1 sequence (Q13133 209-447 limits assumed): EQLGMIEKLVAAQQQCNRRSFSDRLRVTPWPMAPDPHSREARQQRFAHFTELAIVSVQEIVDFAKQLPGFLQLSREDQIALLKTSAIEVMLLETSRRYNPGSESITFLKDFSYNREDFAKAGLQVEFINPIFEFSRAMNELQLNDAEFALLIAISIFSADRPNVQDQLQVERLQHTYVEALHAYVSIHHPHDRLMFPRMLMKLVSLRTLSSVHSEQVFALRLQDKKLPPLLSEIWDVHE

[2] = tested on: high-fat diet (HFD) mouse model; conditions: cited from earlier work
[3] = tested on: SRE promoter luciferase (SRE-luc) in HepG2 cells; assay: SRE-luc reporter in HepG2 cells; format: cell-based, human; conditions: for SRE-luc response: HepG2, normalized to T0
Source text: Our phenotypic high throughput screen (HTS) approach to identify nonlipogenic ABCA1 Inducers (NLAI) originally used counterscreening with a SREBP1c-luciferase reporter (linked to the SREBF1 gene promoter) in human hepatocarcinoma HepG2 cells.[81] Unwanted lipogenesis is mediated by LXR agonists via direct transcriptional activation and indirectly by the effects of SREBP1c.[57] [109] SREBP1c enhances transcription of genes required for synthesis of fatty acids and TG and as the dominant isoform in liver is associated most closely with lipogenesis and TG elevation.[109] […] Binding of SREBP1c to the sterol response element (SRE) induces transcription of lipogenic genes associated with elevated TG. To better model the lipogenic axis in hepatocytes, we use HepG2 cells stably transfected with a luciferase reporter downstream of a SRE promoter (SRE-luc), activation of which requires SREBP1c maturation.
HepG2 cells were cotransfected with SRE (LDLR)-NlucP SuperPiggyBac Transposon and a separate Transposase plasmid (System Biosciences). Cells were expanded for multiple passages followed by selection with puromycin (1ug/ml). Stable cells constitutively express GFP allowed for FACS enrichment and/or cell cloning. Initially, stable pools were compared to low expressing and high expressing enriched pools. The optimal pool was selected based on assay performance (Z’) and was grown and maintained as above, with the addition of 1.0 μg/mL of puromycin biweekly.

LXRα [4] = target: T1, LXRα; conditions: for SRC-1 recruitment to LXRα, efficacy relative to T0: ligand alone, normalized to T0 (100%); for Effect on 24HC agonism at LXRα: in the presence of 24HC (3 μM)
E3/4FAD mice = conditions: cited from earlier work
LXRβ [5] = target: T2, LXRβ (Homo sapiens, UniProt P55055); assay: Corepressor (NCOR2, SMRT2) binding CRT, LXRβ
T2 sequence (P55055 222-460 limits assumed): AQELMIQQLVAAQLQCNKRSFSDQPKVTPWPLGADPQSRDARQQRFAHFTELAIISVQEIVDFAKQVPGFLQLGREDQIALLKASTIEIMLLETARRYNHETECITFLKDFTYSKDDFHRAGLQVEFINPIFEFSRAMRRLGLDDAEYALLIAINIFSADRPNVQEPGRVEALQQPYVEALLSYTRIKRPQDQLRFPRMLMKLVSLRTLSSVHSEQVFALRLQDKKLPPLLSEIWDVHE

NASH mouse model = conditions: cited from earlier work
LXR = assay: CRT signature categorization, heat map of response at 1 μM; format: biochemical; conditions: signatures of Table 1
Source text: With the knowledge that corepressors bind to the apo-receptor; whereas coactivator binding requires a ligand-induced conformational change, we can categorize all ligands using their CRT profiles: ligands induce 3 conformations with CoR (destabilizing D, stabilizing S, neutral N) and only 2 conformations with CoA (stabilizing S, neutral N) (Table 1).
To determine which LXR ligands fit with these theoretical CRT signatures, concentration-response curves were interpolated to measure normalized response at 1 μM ligand concentration and plotted as a heat map (Figs 9A, S8).
The CRT signatures of the three agonist and three antagonist classifications were modelled in the same heat map using signatures defined in Table 1 and the measured responses to the real LXR ligands in our study.

LXRβ [6] = target: T2, LXRβ
[7] = tested on: SREBF1, FAS, and SCD1 in HepG2 cells; assay: RT-PCR of lipogenic genes in HepG2 cells; format: cell-based, human; conditions: HepG2, 24 hours
Experimental: Owing to the anomalous response in the reporter assay, we measured lipogenic genes, SREBF1, FAS, and SCD1 by RT-PCR in HepG2 cells in response to treatment with the biphenyl sulfones (Figs 5G–I).
HepG2 cells were seeded in 12-well plates and treated with compounds for 24 hours. Following treatment, cells were washed once with PBS and then lysed in 350 μL of RLT buffer (Qiagen). Lysates were immediately frozen at −80 °C until RNA extraction. Total RNA was extracted using RNeasy Plus Mini columns (Qiagen) according to the manufacturer’s instructions. RNA concentration and purity were assessed using the A260/A280 ratio measured on a Synergy Neo2 plate reader (BioTek). For cDNA synthesis, 2 μg of total RNA was reverse transcribed using SuperScript III reverse transcriptase (Invitrogen), oligo(dT)12–18 primers, and dNTP mix, following the manufacturer’s protocol. Quantitative PCR was performed using TaqMan Gene Expression Master Mix (Invitrogen) with 2 μL of cDNA and gene-specific TaqMan probes in a 20 μL reaction volume per well. The following TaqMan assays were used: ABCA1: Hs01059101_m1, SREBF1: Hs01088691_m1, SCD: Hs01682761_m1, FASN: Hs01005622_m1, and HPRT1 (endogenous control): Hs02800695_m1. qPCR was performed on a StepOne Real-Time PCR System (Applied Biosystems), and gene expression was quantified using the ΔΔCt method.

LXRα [8] = target: T1, LXRα; assay: Corepressor (NCOR2, SMRT2) binding CRT, LXRα; conditions: absence of coactivator
[9] = tested on: ABCA1-promoter luciferase in CCF-STTG1 cells; assay: ABCA1-luc reporter in CCF-STTG1 astrocytoma cells; format: cell-based, human; conditions: for ABCA1-luc response: 24 hr incubation, normalized to T0 (100%)
Source text: Astrocytoma CCF-STTG1 cells, stably transfected with an ABCA1-promoter linked to a luciferase response element provide a model for ABCA1 induction in astrocytes.[81] […] Apparent inverse agonist activity in cell-based assays can result from true inverse agonist recruitment of corepressors or from antagonist activity towards endogenous sterol LXR agonists. Although we use serum stripped media, antagonism of endogenous LXR agonists cannot be ruled out.
Low passage CCF-STTG1 cells (20,000 cells/well) were seeded in 96-well plates in media containing charcoal-stripped FBS and incubated at 37 °C and 5% CO2 for 24 hours prior to a 24-hour treatment. All compounds were dissolved in DMSO, and final DMSO concentrations never exceeded 1%. After a 24-hour incubation period, add a volume of ONE-GLO™EX Reagent that is equal to the volume of culture medium in each well and incubate for 3 to 5 minutes on the shaker. The luminescent activity of compounds ([…], 10-fold dilution) was examined using the ONE-GLO™EX assay (Promega). The data was normalized to DMSO. The assays were performed in duplicates for each concentration, and the EC50 values were determined from non-linear regression analysis of the dose-response curve generated in GraphPad Prism 9.

hamsters = tested on: hamsters; parameters: method as in PMID 19318684; conditions: cited from earlier work
participants = tested on: participants; parameters: method as in PMID 19398602; conditions: 300 mg dose; cited from earlier work
primates = tested on: primates; parameters: method as in PMID 19318684; conditions: 50 mg/kg/day p.o., returned to baseline at day 7; cited from earlier work
[10] = cited from earlier work
[11] = tested on: mouse model of non-alcoholic steatohepatitis (NASH); conditions: cited from earlier work
obese mice on HFD = conditions: cited from earlier work
mice = conditions: highest dose 30 mg/kg qd; cited from earlier work
LXRβ [12] = target: T2, LXRβ; assay: Multiplex precision CRT (pCRT), SRC1 and NCoR2, LXRβ; format: biochemical; parameters: NR-LBD with short coregulator peptides as used in the present work; purchased Thermo Fisher Scientific PV4660; conditions: SRC1-btn 200 nM, NCoR2-FL 200 nM

Structure (SMILES): CCOC(=O)c1cccc(NC(=O)c2sc(Cl)cc2S(=O)(=O)N(C)c2ccc(OCC)c(OCC)c2)c1 [CL2–57]
Recruitment of coactivator TRAP220 to LXRα (LXRα [1]): very minimal recruitment | Plasma and hepatic TG levels [2]: attenuated diet-induced increases in plasma and hepatic TG levels | EC50 ([3]; Homo sapiens, HepG2 SRE-luc, read-out: EC50, SRE activation): 2.8 µM

Structure (SMILES): Cc1cc(C)c(S(=O)(=O)N(Cc2ccc(-c3cccc(S(C)(=O)=O)c3)cc2)Cc2ccc(C(F)(F)F)o2)c(C)c1 [GSK2033]
SMRT2 binding to LXRβ, ligand effect (LXRβ [5]): selectively displace SMRT2 from LXRβ | Expression of lipogenic genes, including FAS and SREBP1c (NASH mouse model): increased rather than suppressed | CRT signature category (LXR): HA (hard antagonist (HA)) | Effect on 24HC agonism at LXRα (LXRα [4]): without effect on LXRα | SRC-1 recruitment to LXRα, efficacy relative to T0 (LXRα [4]): neither ligand stabilized the LXR:SRC1 complex alone | Effect on 24HC agonism at LXRβ (LXRβ [6]): antagonized the agonism of 24HC at LXRβ | SRC-1 recruitment to LXRβ, efficacy/potency relative to T0 (LXRβ [6]): neither ligand stabilized the LXR:SRC1 complex alone | Lipogenic gene transcription (SREBF1, FAS, SCD1) by RT-PCR [7]: reducing lipogenic gene transcription below baseline | Corepressor (NCOR2 and SMRT2) binding to LXRα, ligand effect (LXRα [8]): does not stabilize a conformation that disrupts corepressor binding to LXRα | ABCA1-luc response [9]: inverse agonist activity in cells; also recorded: mixed antagonist/inverse agonist phenotype | SRE-luc response [3]: neutral or antagonist response; also recorded: mixed antagonist/inverse agonist phenotype

Structure (SMILES): Fc1ccc(-c2c3cccc(C(F)(F)F)c3nn2Cc2ccc(F)cc2Cl)cc1 [LXR-623]
Plasma TG (hamsters): did not cause a dose-dependent increase in plasma TG | Adverse effects (participants): all 6 participants on the highest 300 mg dose reported neurologic or psychiatric adverse effects | Liver TG (primates): significant increase in liver TG was observed but only at high dose

Structure (SMILES): CCOC(=O)c1ccc(CN(Cc2ccc(-c3cccc(S(C)(=O)=O)c3)cc2)S(=O)(=O)c2c(C)cc(C)cc2C)o1 [SR9238]
Metabolic lability / systemic availability [10]: metabolically labile | Corepressor (NCOR2 and SMRT2) binding to LXRβ, ligand effect (LXRβ [5]; absence of coactivator): strong agonist responses | Hepatic inflammation and fibrosis [11]: significantly reduced hepatic inflammation and fibrosis | Plasma TG (obese mice on HFD): plasma TG was suppressed | CRT signature category (LXR): IA (inverse agonist (IA)) | Effect on 24HC agonism at LXRα (LXRα [4]): without effect on LXRα | SRC-1 recruitment to LXRα, efficacy relative to T0 (LXRα [4]): neither ligand stabilized the LXR:SRC1 complex alone | Effect on 24HC agonism at LXRβ (LXRβ [6]; in the presence of 24HC (3 μM)): antagonized the agonism of 24HC at LXRβ | SRC-1 recruitment to LXRβ, efficacy/potency relative to T0 (LXRβ [6]; ligand alone, normalized to T0 (100%)): neither ligand stabilized the LXR:SRC1 complex alone | Lipogenic gene transcription (SREBF1, FAS, SCD1) by RT-PCR [7]: reducing lipogenic gene transcription below baseline | Corepressor (NCOR2 and SMRT2) binding to LXRα, ligand effect (LXRα [8]): strong agonist responses | ABCA1-luc response [9]: inverse agonist activity in cells | SRE-luc response [3]: anomalous activation of SRE at concentrations above 1 μM; also recorded: lowered SRE activation below baseline; also recorded: neutral or antagonist response; also recorded: inverse agonist at < 3 μM concentration

Further lines, with some results ahead:

Recruitment of coactivator TRAP220 to LXRα (LXRα [1]): very minimal recruitment | SRC-1 recruitment to LXRα, efficacy relative to T0 (LXRα [4]): partial agonist activity at LXRα
Structure (SMILES): CCOC(=O)c1cc(Cl)cc(NC(=O)c2sc(Cl)cc2S(=O)(=O)N(C)c2ccc(OCC)c(OC)c2)c1 [CL3–3]
ABCA1 expression, APOE lipidation, AD phenotypes, TG (E3/4FAD mice): increased ABCA1 expression, enhanced APOE lipidation and reversed multiple AD phenotypes, without increasing TG

Recruitment of coactivator TRAP220 to LXRα (LXRα [1]): very minimal recruitment | SMRT2 binding to LXRβ, ligand effect (LXRβ [5]; absence of coactivator): did not perturb SMRT2 binding to LXRβ | NCOR2 displacement from LXRβ in the presence of SRC1 (pCRT) (LXRβ [12]): fully displaced
Structure (SMILES): CC(C)(O)c1cn(-c2ccc(-c3cccc(S(C)(=O)=O)c3)cc2)c(C(C)(C)c2ccccc2Cl)n1 [XL652]
NCOR2 binding to LXRβ, ligand effect (LXRβ [5]; absence of coactivator): weakly destabilized the NCOR2 complex with both LXR isoforms | Plasma triglycerides (mice): elevated plasma triglycerides only at the highest dose | Corepressor (NCOR2 and SMRT2) binding to LXRα, ligand effect (LXRα [8]): strongly stabilized the corepressor-bound conformation | SMRT2 binding to LXRα, ligand effect (LXRα [8]): stabilization of SMRT2 corepressor binding to LXRα | Weaker potency for ABCA1 induction compared to XL041 ([9]; versus XL041): more than 100 fold | SRE-luc response [3]: anomalous activation of SRE at concentrations above 1 μM; also recorded: little or no activation of SRE at submicromolar concentrations | Efficacy of SRE activation ([3]; concentrations ≤ 1 μM): 20–25 % of T0
